The target in assay [1] is NPC1 promoter. Description: Confirmation Assay of NPC1 Promoter Activators: Renilla Luciferase (Huh7). Type of assay: cell-based, human. The note with it: for Emax: read-out: NPC1-renilla Eff. On the procedure: Confirmation Assay of NPC1 Promoter Activators: Renilla Luciferase. The confirmation assay was carried out using an assay in which the NPC1 promoter drives the expression of a different luciferase protein from the one used in the primary screen. The NPC1 promoter was cloned in front of the renilla luciferase reporter gene. NPC1 promoter activation results in renilla luciferase expression. This vector was used to generate Huh7 cell lines stably expressing the NPC1-renilla luciferase vector. These cells were propagated and maintained in medium containing RPMI-1640 supplemented with 10% FBS, 2 mM L-glutamine, and 50 μg/mL penicillin/streptomycin. Cells were plated for assays in OPTI-MEM I reduced-serum medium supplemented with 10% FBS at 1,500 cells/well in 5 μL in 1,536-well white opaque plates and then 23 nL/well of compound in DMSO solution were added through pin transfer. The assay plates were incubated at 37° C. for 24 hours. The Amplite luciferase reporter gene assay kit was purchased from ABD Bioquest and prepared/stored according to manufacturer's recommendations. Luminescence signal was measured in a ViewLux plate reader (Perkin Elmer) after a 10 minute incubation at room temperature.

Assay [2] deals with NPC1 patient cell fibroblasts. Description: Filipin Staining Assay to Detect Free Cholesterol Accumulation in NPC Cells. Type of assay: cell-based, human. The note with it: filipin fluorescence relative to untreated cells; for activity at 1 µM: Homo sapiens, Fibroblast, read-out: % storage at 1 μM. As to the method: Filipin Staining Assay to Detect Free Cholesterol Accumulation in NPC Cells. Compounds were evaluated for their effect on the NPC1 cellular phenotype by staining treated NPC1 patient cell fibroblasts with filipin, which recognizes free unesterified cholesterol. Compounds that upregulate the NPC1 promoter were expected to reduce the filipin staining in treated NPC1 fibroblasts compared to untreated NPC1 fibroblasts, indicating clearance of unesterified cholesterol. Conversely, inhibitors of the NPC1 promoter were expected to increase filipin staining in wild-type fibroblasts, thus indicating the emergence of an NPC-like phenotype. Briefly, cells were grown in lipoprotein-deficient medium for 3-4 days, and then the medium was replaced and supplemented with test compound plus 50 μg/mL low-density lipoprotein (LDL). After 24-48 hours, cells were stained with filipin and scored under the 40× magnification filter using the integrated morphometry function in the Metavue program (Molecular Devices). Test compounds that decreased the intensity of filipin fluorescence to less than 50% of untreated cells are considered of particular interest.

Assay [3] addresses T1, Renilla Enzyme (Renilla reniformis, UniProt P27652).
T1 sequence (P27652 1-311): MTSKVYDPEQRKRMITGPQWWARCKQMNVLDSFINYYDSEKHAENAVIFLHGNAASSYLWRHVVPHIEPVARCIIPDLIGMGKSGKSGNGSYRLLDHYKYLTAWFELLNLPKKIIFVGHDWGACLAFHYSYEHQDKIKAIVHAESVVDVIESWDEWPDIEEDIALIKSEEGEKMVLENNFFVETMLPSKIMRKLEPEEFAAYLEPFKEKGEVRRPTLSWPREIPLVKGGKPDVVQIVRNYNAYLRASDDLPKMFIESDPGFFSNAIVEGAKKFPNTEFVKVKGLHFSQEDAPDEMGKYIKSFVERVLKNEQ
The assay can be described thus: Biochemical Renilla Luciferase Counter assay.
Procedure: Biochemical Renilla Luciferase Counter assay. An orthogonal assay was run to exclude any compounds that promoted renilla luciferase signal by stabilizing the renilla protein. Briefly, 3 μL of 0.01 mM D-Luciferin and 0.01 mM ATP was dispensed into a 1536 well white, solid bottom plate. Through pinning, 23 nL of compound was added; PTC124 (3-[5-(2-Fluorophenyl)-1,2,4-oxadiazol-3-yl]benzoic acid) served as the control. After a 10 min incubation at room temperature, 1 μL of Luciferase was added, after which the plate was immediately read on the ViewLux for a luminescent read-out.

Assay [4] concerns the target NPC1 promoter. Description: qHTS of NPC1 Promoter-Luciferase Reporter Gene Assay (firefly, Huh7). Type of assay: cell-based, human. The note with it: 24 hours. On the procedure:
(§1) qHTS of NPC1 Promoter-Luciferase Reporter Gene Assay. For the second primary screen, a promoter assay was developed by engineering a vector using approximately 1.5 kb of the NPC1 promoter to drive the expression of the firefly luciferase reporter gene. Thus, NPC1 promoter activation results in luciferase expression. This vector was used to generate Huh7 cell lines stably expressing the NPC1-luciferase vector. […] Cells were plated for assays in OPTI-MEM I reduced-serum medium supplemented with 10% FBS at 1,500 cells/well in 5 μL in 1,536-well white opaque plates with 23 nL/well of test compound in DMSO solution. The assay plates were incubated at 37° C. for 24 hours, after which 3 μL/well BriteLite plus luciferase detection reagent mixture (Perkin Elmer) was added. Luminescence signal was measured in a ViewLux plate reader (Perkin Elmer) after a 10 minute incubation at room temperature.

Assay [5] concerns Wild type (Wt) cells. Description: VTB-GL-3 assay, wild type cells. Type of assay: cell-based, human. The note with it: Wt cells treated for 3 days.
Assay [6] deals with NPC3 cells. Description: Lactosyl Ceramide (BODIPY-LacCer) staining to monitor sphingolipid transport. Type of assay: cell-based, human. The note with it: for correction of lipid transport block (accumulation of Bodipy LacCer probe to the Golgi): compared to untreated NPC3 cells. On the procedure: Lactosyl Ceramide staining to monitor sphingolipid transport in NPC cells. The effect of each compound on the sphingolipid transport defect seen in NPC1 fibroblasts was assessed in cells treated with compound for 48-72 hours using the fluorescent probe BODIPY-lactosylceramide (LacCer). […] This mislocalization can be corrected and Golgi localization restored by expression of Wt NPC1 protein or Rab9, thus providing a dynamic view of the endocytic transport pathway. Cells were incubated with 5 μM BODIPY-LacCer/BSA for 45 min at 37° C. in culture medium containing 1% FBS, washed, and further incubated for 1 h at 37° C. in medium containing 1% FBS. Fluorescent lipid present at the plasma membrane was removed by back-exchange with 5% fatty acid-free BSA. Cells were fixed with 3% paraformaldehyde for 20 min at RT and then visualized on a Nikon Eclipse microscope fitted with a charge-coupled-device camera. Images were acquired with MetaVue software and then deconvoluted using AutoDeblur software.
Unlike the VTB assay above that detects the static levels of lipid storage, the Bodipy LacCer probe allows for detection of the recovery/correction of lipid transport from the plasma membrane to the Golgi apparatus as described above. This dynamic assay can be used to determine the level of correction various compounds have on the NPC transport block.

For assay [7], the target named is Rab9 promoter. The assay can be described thus: qHTS of Rab9 Promoter-Luciferase Reporter Gene Assay (firefly, Huh7). Type of assay: cell-based, human. To be noted: 24 hours. On the procedure: as §1, with “Rab9” for “NPC1”, “the” for “the second”, “Rab9-luciferase” for “NPC1-luciferase”

From US10239830B2, “Benzenesulfonamide upregulators of NPC1 for Neimann-Pick disease and other lysosomal storage disorders” (ICAHN SCHOOL OF MEDICINE AT MOUNT SINAI, priority 2015, dated 2019) come the findings set out here.

Broadly, the EC50 is the concentration that produces a half-maximal response. Higher therefore signals weaker potency. Turning to `COc1ccc(NC(=O)C23CC4CC(CC(C4)C2)C3)cc1S(=O)(=O)Nc1ccc(Br)cc1` [Example 47], in assay [1] (24 hours), the EC50 is 2700 nM and the “NPC1-renilla Eff.” value was 80%. In addition, the “% storage at 1 μM” value in assay [2] was determined as 33%. In addition, in assay [3], the “Renilla Enzyme IC50” value is reported as “Inactive”.
Take `COc1ccc(NC(=O)c2[nH]c(C)cc2C)cc1S(=O)(=O)Nc1ccc(Br)cc1` [Example 42]: in assay [1] (Homo sapiens, Huh-7, 24 hours), the EC50 was found to be 2700 nM and the Emax was determined as 119%. Besides, in assay [2], the activity at 1 µM stood at 47% and the “% storage at 0.1 μM” value came out at 49%.
In the case of `COc1ccc(NC(=O)c2ccc[nH]2)cc1S(=O)(=O)Nc1ccc(Br)cc1` [Example 43], in assay [1] (Homo sapiens, Huh-7, 24 hours), the EC50 came to 4300 nM and the Emax came out at 88%.
As for `COc1ccc(NC(=O)c2ccccc2)cc1S(=O)(=O)Nc1ccc(Br)cc1` [Example 45], in assay [1] (Homo sapiens, Huh-7, 24 hours), it took 1100 nM to reach a half-maximal effect (EC50) and the Emax was found to be 223%. Besides, the activity at 1 µM in assay [2] came out at 60%.
Turning to `COc1ccc(NC(=O)c2cccnc2)cc1S(=O)(=O)Nc1ccc(Br)cc1` [Example 51], in assay [1] (Homo sapiens, Huh-7, 24 hours), the midpoint of the response, the EC50, lay at 2700 nM and the Emax worked out at 257%. The activity at 1 µM in assay [2] was 29%.
Consider `COc1ccc(NC(=O)c2[nH]c(C)c(C(C)=O)c2C)cc1S(=O)(=O)Nc1ccc(Br)cc1` [Example 36], for which, in assay [4], the EC50 is 700 nM and the “NPC1 Eff.” value is listed as 150%. In addition, the “effect on storage of lipid material (VTB staining) in Wt cells” value in assay [5] is recorded as “no effect on Wt cells”. In addition, the “percent Golgi location” value in assay [6] (10 or 100 nM) is reported as “reduces percent Golgi location by a statistically significant amount”. The “correction of lipid transport block (accumulation of Bodipy LacCer probe to the Golgi)” value in assay [6] is given as “correction of their block”. In assay [2], the “% storage at 0.1 μM” value amounted to 50% and the “% storage at 1 μM” value was 25%.
For `COc1ccc(NC(=O)c2cccnc2C)cc1S(=O)(=O)Nc1ccc(Br)cc1` [Example 49], in assay [1] (Homo sapiens, Huh-7, 24 hours), a half-maximal response (EC50) required 5500 nM and the Emax amounted to 395%. Besides, the activity at 1 µM in assay [2] came out at 30%.
As to `CC(=O)c1c(C)[nH]c(C(=O)Nc2cccc(S(=O)(=O)N(C)C)c2)c1C` [Example 1], in assay [4], the EC50 lay within 6600 to 7700 nM and the “NPC1 Eff.” value is recorded as 68-83%. In assay [5], the “effect on storage of lipid material (VTB staining) in Wt cells” value was “no effect on Wt cells”. For the same molecule, the “percent Golgi location” value in assay [6] (1 μM) was “reduces percent Golgi location by a statistically significant amount”. In assay [6], the “correction of lipid transport block (accumulation of Bodipy LacCer probe to the Golgi)” value is given as “correction of their block”. In assay [7], the EC50 stood at 6100 nM and the “Rab9 Eff.” value is 148%. Besides, in assay [2], the “% storage at 0.1 μM” value is recorded as 40% and the “% storage at 1 μM” value was 22%.
Take `COc1ccc(NC(=O)c2c(C)cccc2C)cc1S(=O)(=O)Nc1ccc(Br)cc1` [Example 46]: in assay [1] (Homo sapiens, Huh-7, 24 hours), the response was half-maximal at 1100 nM (EC50) and the Emax stood at 192%. Besides, in assay [2], the activity at 1 µM was 46% and the “% storage at 0.1 μM” value stood at 26%.
With `COc1ccc(NC(=O)c2c(C)c(C(C)=O)c(C)n2C)cc1S(=O)(=O)Nc1ccc(Br)cc1` [Example 44], in assay [1] (Homo sapiens, Huh-7, 24 hours), it took 500 nM to reach a half-maximal effect (EC50) and the Emax stood at 245%.
